Laboratory results from ChEMBL document CHEMBL3102825, “Exploration of a series of 5-arylidene-2-thioxoimidazolidin-4-ones as inhibitors of the cytolytic protein perforin” (J Med Chem, 2013).

Test: Aqueous solubility of the compound
Format: physicochemical

solubility [µg/mL]	Compound
43	O=C1NC(=S)[N-]/C1=C/c1ccc(-c2ccc3c(c2)COC3=O)s1.[Na+]
37.2	O=C1NC(=S)[N-]/C1=C/c1ccc(-c2ccc3c(c2)C(=O)NCC3)s1.[Na+]
136	O=C1[N-]/C(=C/c2ccc(-c3ccc4c(c3)CNC4=O)s2)C(=O)N1.[Na+]
10200	O=C1NC(=S)[N-]/C1=C/c1ccc(-c2ccc3c(c2)CN(CCCO)C3=O)s1.[Na+]
397	CCOC(=O)N1Cc2cc(-c3ccc(/C=C4/[N-]C(=S)NC4=O)s3)ccc2C1=O.[Na+]
3430	O=C1NC(=S)[N-]/C1=C/c1ccc(-c2ccc3c(c2)CN(CCO)C3=O)s1.[Na+]
151	CN1Cc2cc(-c3ccc(/C=C4/[N-]C(=S)NC4=O)s3)ccc2C1=O.[Na+]
140	O=C1NC(=S)[N-]/C1=C/c1ccc(-c2ccc3c(c2)CNC3=O)s1.[Na+]

Compound	solubility [µg/mL]
O=C1NC(=S)[N-]/C1=C/c1ccc(-c2ccc3c(c2)CCNC3=O)s1.[Na+]	1570
CC1c2cc(-c3ccc(/C=C4/[N-]C(=S)NC4=O)s3)ccc2C(=O)N1C.[Na+] (stereo not given)	1410
